Among the data in US9062056B2, “Aza-benzimidazolone Chymase inhibitors” (Boehringer Ingelheim International GmbH, priority 2008, dated 2015) are IC50 values, retold here.

For the test, the target named is T1, Chymase (Homo sapiens, UniProt P23946).
T1 sequence (P23946 22-247): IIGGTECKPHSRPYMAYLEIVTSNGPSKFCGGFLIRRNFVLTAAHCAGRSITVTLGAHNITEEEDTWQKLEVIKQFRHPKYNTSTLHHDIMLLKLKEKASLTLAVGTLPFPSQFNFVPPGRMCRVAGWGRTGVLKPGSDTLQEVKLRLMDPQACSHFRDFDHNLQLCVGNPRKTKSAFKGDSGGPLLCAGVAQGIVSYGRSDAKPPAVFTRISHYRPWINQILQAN
In words: In vitro assay for inhibition of Chymase (rhodamine 110 peptide substrate, fluorescence). It counts as biochemical. The settings on record: 500 pM chymase, 100 nM substrate, 100 μM TCEP, 1% DMSO, 28° C., 1 hour. Here is the method: IN VITRO ASSAY FOR INHIBITION OF CHYMASE
Chymase assays were performed in a total volume of 15 μL in Corning black opaque 384-well microtiter plates with a non-binding surface (Corning, N.Y.). The assay buffer was comprised of 20 mM Tris HCl pH 8.0, 50 mM NaCl, 0.01% CHAPS. The test compounds were serially diluted 3-fold with neat DMSO in a 96-well polypropylene plate from a 10 mM DMSO stock to give the 10 point dose response curve. 3 μL of the resulting DMSO solution were transferred to a 384-well polypropylene plate in duplicate, and 37 μL of assay buffer was added. Chymase was added to the assay plate in 3 uL of assay buffer followed by 2 uL of the appropriate compound dilution using a PlateMate Plus (Matrix Technologies Corp., Hudson, N.H.). The reaction was initiated by the addition of 10 uL rhodamine 110, bis-(succinoyl-L-alanyl-L-alanyl-L-prolyl-L-phenylalanylamide) (American Peptides, Sunnyvale, Calif.) in assay buffer containing 150 μM tris(2-carboxyethyl)phosphine (TCEP, Pierce Chemical, Rockford, Ill.) using a Multidrop (Thermo Electron Corp., Waltham, Mass.). Final assay concentrations were 500 pM chymase, 100 nM substrate, 100 μM TCEP, and 1% DMSO. The plates were incubated at 28° C. and 80% humidity for 1 hour, at which time the fluorescence was read on a Viewlux 1430 Microplate Imager (Perkin Elmer Life Sciences, Boston, Mass.) with 485 nm excitation, 530 nm emission, and a fluorescein dichroic mirror. The percentage of control values were calculated relative to assay blanks containing complete reaction minus chymase and a 100% control containing assay buffer with 1% DMSO in place of compound. IC50 values were obtained by fitting the data using XLFit4 (IDBS Software).
The term IC50 denotes the concentration at which inhibition is half-maximal. A higher IC50 goes with a need for much substance. In turn, `CCC[C@@H](CC(=O)NS(=O)(=O)c1cn(C)cn1)n1c(=O)n(Cc2cn(C)c3cccc(C)c23)c2cccnc21` [1-Methyl-1H-imidazole-4-sulfonic acid {(S)-3-[1-(1,4-dimethyl-1H-indol-3-ylmethyl)-2-oxo-1,2-dihydro-imidazo[4,5-b]pyridin-3-yl]-hexanoyl}-amide] showed an IC50 of 6.71 nM.
Then `Cc1cc(C)c2c(Cn3c(=O)n(CC4(C(=O)O)CCCCC4)c4nc(C)ccc43)nsc2c1` [1-[1-(4,6-Dimethyl-1,2-benzisothiazol-3-ylmethyl)-5-methyl-2-oxo-1,2-dihydro-imidazo[4,5-b]pyridin-3-ylmethyl]-cyclohexanecarboxylic acid], with 1.45 nM; and `CCC[C@@H](CC(=O)NS(=O)(=O)C(C)(C)C)n1c(=O)n(Cc2cn(C)c3cccc(C)c23)c2cccnc21` [2-Methyl-propane-2-sulfonic acid {(S)-3-[1-(1,4-dimethyl-1H-indol-3-ylmethyl)-2-oxo-1,2-dihydro-imidazo[4,5-b]pyridin-3-yl]-hexanoyl}-amide], with 1 nM.
As for `CCCC(Cn1c(=O)n(Cc2cn(C)c3cccc(C)c23)c2cccnc21)C(=O)O` (centres unmarked) [2-[1-(1,4-Dimethyl-1H-indol-3-ylmethyl)-2-oxo-1,2-dihydro-imidazo[4,5-b]pyridin-3-ylmethyl]-pentanoic acid], half-maximal inhibition (IC50) was put at 3 nM.
Under `CCCC(CC(=O)O)n1c(=O)n(Cc2cn(C)c3cc(C)cc(C)c23)c2ccc(C(N)=O)nc21` (centres unmarked) [3-[5-Carbamoyl-2-oxo-1-(1,4,6-trimethyl-1H-indol-3-ylmethyl)-1,2-dihydro-imidazo[4,5-b]pyridin-3-yl]-hexanoic acid] stands 1.93 nM.
Under `CCCC(CC(=O)O)n1c(=O)n(Cc2cn(C)c3cccc(C)c23)c2ccc(C#N)nc21` (centres unmarked) [3-[5-Cyano-1-(1,4-dimethyl-1H-indol-3-ylmethyl)-2-oxo-1,2-dihydro-imidazo[4,5-b]pyridin-3-yl]-hexanoic acid] stands 2.2 nM.
Under `CCCC(CC(=O)O)n1c(=O)n(Cc2cn(C)c3cc(C)cc(C)c23)c2ccc(C#N)nc21` (centres unmarked) [3-[5-Cyano-2-oxo-1-(1,4,6-trimethyl-1H-indol-3-ylmethyl)-1,2-dihydro-imidazo[4,5-b]pyridin-3-yl]-hexanoic acid] stands 1.06 nM; under `Cc1ccc2c(n1)n([C@H](CC(=O)O)c1cccc(Cl)c1)c(=O)n2Cc1cn(C)c2cccc(C)c12` [(R)-3-(3-Chloro-phenyl)-3-[1-(1,4-dimethyl-1H-indol-3-ylmethyl)-5-methyl-2-oxo-1,2-dihydro-imidazo[4,5-b]pyridin-3-yl]-propionic acid], 7.07 nM; under `Cc1cc(C)c2c(Cn3c(=O)n([C@H](CC(=O)O)c4cccc(Cl)c4)c4nc(C)ccc43)nsc2c1` [(R)-3-(3-Chloro-phenyl)-3-[1-(4,6-dimethyl-1,2-benzisothiazol-3-ylmethyl)-5-methyl-2-oxo-1,2-dihydro-imidazo[4,5-b]pyridin-3-yl]-propionic acid], 6.26 nM.
As for `Cc1ccc2c(n1)n([C@H](CC(=O)O)c1ccc(Cl)cc1)c(=O)n2Cc1cn(C)c2cccc(C)c12` [(R)-3-(4-Chloro-phenyl)-3-[1-(1,4-dimethyl-1H-indol-3-ylmethyl)-5-methyl-2-oxo-1,2-dihydro-imidazo[4,5-b]pyridin-3-yl]-propionic acid], the IC50 was found to be 0.255 nM.
Under `Cc1cc(C)c2c(Cn3c(=O)n([C@H](CC(=O)O)c4ccc(Cl)cc4)c4nc(C)ccc43)nsc2c1` [(R)-3-(4-Chloro-phenyl)-3-[1-(4,6-dimethyl-1,2-benzisothiazol-3-ylmethyl)-5-methyl-2-oxo-1,2-dihydro-imidazo[4,5-b]pyridin-3-yl]-propionic acid] stands 0.624 nM.
Then `Cc1cccc2c1c(Cn1c(=O)n([C@H](CC(=O)O)c3ccc(Cl)cc3)c3nc(C#N)ccc31)cn2C` [(R)-3-(4-Chloro-phenyl)-3-[5-cyano-1-(1,4-dimethyl-1H-indol-3-ylmethyl)-2-oxo-1,2-dihydro-imidazo[4,5-b]pyridin-3-yl]-propionic acid], with 0.165 nM.
Under `Cc1cc(C)c2c(Cn3c(=O)n([C@H](CC(=O)O)c4ccc(Cl)cc4)c4nc(C#N)ccc43)cn(C)c2c1` [(R)-3-(4-Chloro-phenyl)-3-[5-cyano-2-oxo-1-(1,4,6-trimethyl-1H-indol-3-ylmethyl)-1,2-dihydro-imidazo[4,5-b]pyridin-3-yl]-propionic acid] stands 0.2 nM; under `Cc1cc(C)c2c(Cn3c(=O)n([C@H](CC(=O)O)c4ccc(Cl)cc4)c4nc(C)ccc43)cn(C)c2c1` [(R)-3-(4-Chloro-phenyl)-3-[5-methyl-2-oxo-1-(1,4,6-trimethyl-1H-indol-3-ylmethyl)-1,2-dihydro-imidazo[4,5-b]pyridin-3-yl]-propionic acid], 0.2 nM.
As to `Cc1cccc2c1c(Cn1c(=O)n([C@H](CC(=O)O)c3ccccc3)c3ncccc31)cn2C` [(R)-3-[1-(1,4-Dimethyl-1H-indol-3-ylmethyl)-2-oxo-1,2-dihydro-imidazo[4,5-b]pyridin-3-yl]-3-phenyl-propionic acid], the IC50 stood at 2.21 nM.
For `COc1ccc2c(n1)n([C@H](CC(=O)O)c1ccccc1)c(=O)n2Cc1cn(C)c2cccc(C)c12` [(R)-3-[1-(1,4-Dimethyl-1H-indol-3-ylmethyl)-5-methoxy-2-oxo-1,2-dihydro-imidazo[4,5-b]pyridin-3-yl]-3-phenyl-propionic acid], the IC50 worked out at 2.05 nM.
Compound `COc1ccc([C@@H](CC(=O)O)n2c(=O)n(Cc3cn(C)c4cccc(C)c34)c3ccc(C)nc32)cc1` [(R)-3-[1-(1,4-Dimethyl-1H-indol-3-ylmethyl)-5-methyl-2-oxo-1,2-dihydro-imidazo[4,5-b]pyridin-3-yl]-3-(4-methoxy-phenyl)-propionic acid] yielded an IC50 of 0.455 nM.
`Cc1ccc2c(n1)n([C@H](CC(=O)O)c1ccccc1)c(=O)n2Cc1cn(C)c2cccc(C)c12` [(R)-3-[1-(1,4-Dimethyl-1H-indol-3-ylmethyl)-5-methyl-2-oxo-1,2-dihydro-imidazo[4,5-b]pyridin-3-yl]-3-phenyl-propionic acid] showed an IC50 of 2.52 nM.
Then `Cc1ccc2c(n1)n([C@H](CC(=O)O)c1cccnc1)c(=O)n2Cc1cn(C)c2cccc(C)c12` [(R)-3-[1-(1,4-Dimethyl-1H-indol-3-ylmethyl)-5-methyl-2-oxo-1,2-dihydro-imidazo[4,5-b]pyridin-3-yl]-3-pyridin-3-yl-propionic acid], with 10.7 nM.
Then `Cc1cc(C)c2c(Cn3c(=O)n([C@H](CC(=O)O)c4ccccc4)c4ncccc43)nsc2c1` [(R)-3-[1-(4,6-Dimethyl-benzo[d]isothiazol-3-ylmethyl)-2-oxo-1,2-dihydro-imidazo[4,5-b]pyridin-3-yl]-3-phenyl-propionic acid], with 4.23 nM; and `Cc1cccc2c1c(Cn1c(=O)n([C@H](CC(=O)O)c3ccccc3)c3nc(C4CC4)ncc31)cn2C` [(R)-3-[2-Cyclopropyl-7-(1,4-dimethyl-1H-indol-3-ylmethyl)-8-oxo-7,8-dihydro-purin-9-yl]-3-phenyl-propionic acid], with 5 nM; and `Cc1cc(C)c2c(Cn3c(=O)n([C@H](CC(=O)O)c4ccccc4)c4ncccc43)cn(C)c2c1` [(R)-3-[2-Oxo-1-(1,4,6-trimethyl-1H-indol-3-ylmethyl)-1,2-dihydro-imidazo[4,5-b]pyridin-3-yl]-3-phenyl-propionic acid], with 0.61 nM.
Then `Cc1cccc2c1c(Cn1c(=O)n([C@H](CC(=O)O)c3ccccc3)c3ccncc31)cn2C` [(R)-3-[3-(1,4-Dimethyl-1H-indol-3-ylmethyl)-2-oxo-2,3-dihydro-imidazo[4,5-c]pyridin-1-yl]-3-phenyl-propionic acid], with 3.91 nM; and `Cc1cc2c(cn1)n(Cc1cn(C)c3cccc(C)c13)c(=O)n2[C@H](CC(=O)O)c1ccccc1` [(R)-3-[3-(1,4-Dimethyl-1H-indol-3-ylmethyl)-6-methyl-2-oxo-2,3-dihydro-imidazo[4,5-c]pyridin-1-yl]-3-phenyl-propionic acid], with 2.62 nM.
For `Cc1cc(C)c2c(Cn3c(=O)n([C@H](CC(=O)O)c4ccccc4)c4cc(C)ncc43)nsc2c1` [(R)-3-[3-(4,6-Dimethyl-1,2-benzisothiazol-3-ylmethyl)-6-methyl-2-oxo-2,3-dihydro-imidazo[4,5-c]pyridin-1-yl]-3-phenyl-propionic acid], half-maximal inhibition (IC50) was put at 4 nM.
Under `Cc1cc(C)c2c(Cn3c(=O)n([C@H](CC(=O)O)c4ccccc4)c4ccncc43)nsc2c1` [(R)-3-[3-(4,6-Dimethyl-benzo[d]isothiazol-3-ylmethyl)-2-oxo-2,3-dihydro-imidazo[4,5-c]pyridin-1-yl]-3-phenyl-propionic acid] stands 11.2 nM.
